Drawing on the supplement of paper PMC10307832, this text covers relative viability for one cell line.

Common to all, as to assay: relative viability (nuclei count vs DMSO), 5 days (fraction); higher = more cells survive
Compound in the assay “IDH-C35 + Foretinib”: Cc1ccccc1C(C(=O)NC1CCCCC1)N(C(=O)Cn1ccnc1C)c1cccc(F)c1 [IDH-C35] + COc1cc2c(Oc3ccc(NC(=O)C4(C(=O)Nc5ccc(F)cc5)CC4)cc3F)ccnc2cc1OCCCN1CCOCC1 [Foretinib] (partner 0.25 µM)
Summed up:
(§1)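 Lung cancer cell lines were pin-tool dosed in 1536-well plates on the day after seeding, with either a lone drug or a fixed anchor-drug dose plus five library-drug doses (not always all listed) in √10 steps. Nuclei were counted on 4× images after 5 days. Relative viability is the ratio of treated-well to vehicle-well nuclei counts, with each value a median of duplicate plates.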

Compound in assay [1]: CC1=C(C(=NN1)C)CC2=C(C3=C(S2)N(C(=O)N(C3=O)C)CC(C)C)C(=O)N4C[C@@H](CO4)O + N=C(N)NC(=N)NCCc1ccccc1 [Phenformin] (partner 250 µM)
A digest of the protocol: as §1

Compound in assay [2]: CC1=C(C(=NN1)C)CC2=C(C3=C(S2)N(C(=O)N(C3=O)C)CC(C)C)C(=O)N4C[C@@H](CO4)O + COc1cccc2cc(-c3nc([C@H]4CC[C@H](C(=O)O)CC4)n4ncnc(N)c34)[nH]c12 [OSI-027] (partner 0.5 µM)
A digest of the protocol:
as §1

Compound in assay [3]: CC1=C(C(=NN1)C)CC2=C(C3=C(S2)N(C(=O)N(C3=O)C)CC(C)C)C(=O)N4C[C@@H](CO4)O + CC(C)C[C@H](NC(=O)[C@H](Cc1ccccc1)NC(=O)c1cnccn1)B(O)O [Bortezomib] (partner 0.002 µM)
Summed up:
as §1

As to UMC-11, the relative viability worked out at 0.889 with IDH-C35 + Foretinib (first compound 0.08 µM); 1.07 in the assay with IDH-C35 + Foretinib (first compound 0.253 µM); 0.997 with IDH-C35 + Foretinib (first compound 0.8 µM); 1.06 with IDH-C35 + Foretinib (first compound 2.53 µM); 1.11 in the assay with IDH-C35 + Foretinib (first compound 8 µM); 0.168 in assay [1] (first compound 0.0025 µM). For the same cell line, the relative viability in assay [1] (first compound 0.007906 µM) came to 0.195; in assay [1] (first compound 0.025 µM) it was 0.156; in assay [1] (first compound 0.07906 µM) it was 0.17; in assay [1] (first compound 0.25 µM), 0.188; in assay [2] (first compound 0.0025 µM), 0.494; in assay [2] (first compound 0.007906 µM), 0.473. Also, the relative viability was found to be 0.468 in assay [2] (first compound 0.025 µM); 0.549 in assay [2] (first compound 0.07906 µM); 0.572 in assay [2] (first compound 0.25 µM); 0.667 in assay [3] (first compound 0.0025 µM); 0.189 in assay [3] (first compound 0.007906 µM); 0.173 in assay [3] (first compound 0.025 µM). Besides, the relative viability is 0.22 in assay [3] (first compound 0.07906 µM) and 0.32 in assay [3] (first compound 0.25 µM).
